Consider two compounds from paper PMC9692703 (2022).

Experiment [1] concerns Adenosine aptamer (Aptade), 4 bp (DNA, aptamer) ACCTGGGGGAGTATTGCGGAGGAAGGT
Briefly: ThT fluorescence enhancement. Particulars: 100 mM NaCl, 10 mM MgCl2; 10 mM PB pH 7; 100 nM aptamer.

For experiment [2], the system named is A30/T30 duplex (DNA, duplex) AAAAAAAAAAAAAAAAAAAAAAAAAAAAAA/TTTTTTTTTTTTTTTTTTTTTTTTTTTTTT
Briefly: SGI staining fluorescence. Particulars: 100 mM NaCl; 10 mM PB pH 7; 100 nM DNA, 0.5x SGI.

As to `Cc1ccc2c(c1)sc(-c1ccc(N(C)C)cc1)[n+]2C`, the binding entry in experiment [1] is given as “yes”. `CCCN(CCCN(C)C)c1cc(C=C2Sc3ccccc3N2C)c2ccccc2[n+]1-c1ccccc1`: the binding result in experiment [2] was “yes”.
